Experimental data reported in patent US20110059174A1, “PKCdelta REGULATES NEUROINFLAMMATORY EVENTS” (IOWA STATE UNIVERSITY RESEARCH FOUNDATION, INC., priority 2009, published 2011).

What was measured:
BV-2 cells = test: TNFα release from BV-2 cells exposed to MMP-3 or MPP (Luminex); assay type: cell-based
Experimental: FIG. 6. MMP3-induces TNFα release in BV2 cells. […] After 24 h, the amount of TNFa released into the extracellular medium were determined in Luminex assays (see methods for details). n=6 ** p<0.01 compared to control.
(§1) Microglial cells are the primary immune cells in the CNS and are the major source of TNFα during neuroinflammation. Therefore, in this section, we examined the possible mechanisms that could regulate TNFα release during microglial activation. In particular, we examined whether PKCδ plays any role in the production and release of cytokines. For these studies, we used LPS as a microglial activator on BV2 cells, a widely used microglial cell line. BV-2 cells were exposed to LPS (1 μg/ml) in the presence or absence of PKCδ inhibitor rottlerin (1-3 μM). […] After 16 hr, cell-free supernatants were collected and TNFα levels were quantified using a multiplex bead-based luminex® assay system, as described in the methods.
Matrix metalloproteinases (MMPs) are a family of highly homologous protein-degrading zinc dependent endopeptidases. […] Therefore, we examined if MMP-3 could trigger TNFα release in BV-2 cells. […] Following 24 hr of MMP-3 treatment, supernatants were collected from extracellular medium and TNFα levels were determined using a Luminex immunoassay. […]

BV-2 microglia = test: LPS induced cytokine release in BV-2 microglia (Luminex immunoassay); assay type: cell-based; conditions: BV-2 cells
Experimental: FIG. 1. […] BV-2 microglia were exposed to 1 μg/ml LPS with and without rottlerin (1 to 3 μM) for 16 hrs and cell free supernatants were collected.
BV-2 microglia were transfected with 20 nM PKCδ siRNA and non-specific siRNA. 24 hr later transfected cells were treated with LPS (1 μg/ml) for 16 hrs and cell free supernatants were collected. Specificity of PKCδ suppression was assessed by western blotting.
as §1
In this experiment, we examined whether PKCδ-siRNA mediated knockdown of PKCδ, would suppress LPS-induced TNFα release in BV-2 cells.

primary mouse microglia = test: LPS-induced cytokine release from primary mouse microglia (Luminex immunoassay); assay type: cell-based
Experimental: FIG. 8. Effect of PKCδ inhibitor rottlerin on LPS-induced TNFα release from primary mouse microglia. Primary microglia were treated with 100 ng/ml LPS for 24 hr in the presence of PKCδ inhibitor rottlerin (1 μM and 3 μM). TNFα levels in the culture medium were quantified using a multiplex bead-based luminex® immunoassay. *** p<0.001 compared to controls; […] ### p<0.001 compared to LPS treatment; N=5.
(§2) FIG. 10. PKCδ inhibitor rottlerin suppresses pro-inflammatory cytokine release in primary mouse microglia. Primary microglia were isolated by differential adherence from post-natal mixed-glial cultures and purity verified to be more than 95% by immunocytochemistry. Primary microglia were treated with LPS (100 ng/ml) for 24 hrs or pre-treated with the PKCδ inhibitor rottlerin (1 μM) and then treated with LPS. After treatment, supernatants were collected and proinflammatory cytokine levels were assayed using a multiplexed luminex assay.
To extend the results obtained with the BV2 microglial cell line to primary microglia, we performed some preliminary studies in primary microglia isolated from post-natal day 2 (PND-2) C57 black mice as described previously (Floden et al. 2006). Briefly, the brain tissues from PND-2 mice were gently triturated in ice-cold Ca^2+ and Mg^2+-free HBSS. The cells were spun down and cultured using DMEM/F-12 medium containing 10% heat-inactivated FBS, antibiotics and essential nutrients, as described previously (Liu et al. 2002). After 12-14 days, microglia were harvested by the differential shaking method (350 rpm for 4 hr) and grown on poly-D lysine coated 24-well plates. Primary microglia were then fixed with 4% paraformaldehyde and processed for immunohistochemical staining using CD 11b (microglial marker) monoclonal antibody followed by Alexa 568-conjugated secondary antibody (red). Nuclei were stained with TO-PRO-3 dye (blue). The cells were viewed using a Nikon TE2000 microscope, and images were captured by SPOT digital camera. […] Additionally, we have established a microglia isolation procedure using magnetic labeled CD11b (MACs CD11b+) microbeads followed by AutoMACS cell sorting, which also yielded over 95% pure microglia.
We extended this study to primary microglia. CD11b+ primary microglia cultures were prepared, as described in the previous section. The primary microglial cultures were treated with 100 ng/ml LPS for 24 hr in the presence of various doses of the PKCδ inhibitor rottlerin (1 μM and 3 μM). TNFα levels in the culture medium were quantified using a multiplex bead-based Luminex® immunoassay. […] 3 μM rottlerin reduced LPS-induced TNFα release by 75%. Consistent with the BV2 cell line data presented in the original proposal, the new results provide further evidence that PKCδ can regulate TNFα release in primary microglia during neuroinflammation.
as §2, with “microglia. Primary Microglia were isolated” for “microglia. Primary microglia were isolated”

PKCδ = conditions: dose range 1-3 μM; cited from earlier work
[1] = tested on: nigral dopaminergic neurons; conditions: MPTP-induced animal model of Parkinson's disease; cited from earlier work
[2] = dose range 1-3 μM; cited from earlier work
PKCδ promoter = PKCδ promoter luciferase reporter assay in BV-2 cells; assay type: cell-based, mouse
From the text: FIG. 4. PKCδ promoter structure and site-directed mutagenesis of NFkB binding sites. (A) The ˜2 kb fragment of mouse PKCδ promoter region (relative to the transcription start site) was cloned using genomic DNA prepared from MN9D cells by the fusion PCR technique. PKCδ promoter fragment was cloned into promoter-less pGL3-basic vector with a luciferase reporter gene (Luc). (B). Site-specific mutagenesis of two NFkB sites present in the PKCδ promoter region.
FIG. 5. Mutation of NFkB sites block TNFa induced PKCδ promoter activity. Briefly, BV2 cells, were transfected with promoter constructs coding for native or NFkB mutated PKCδ promoter (see FIG. 10). 12 h after transfection, cells were exposed to 30 ng/ml TNF with or without etanercept (ETA). 24 h later, cell lsyates were subject to luciferase assay.
Since PKCδ upregulation was observed during neuroinflammation (FIG. 4A), we sought to determine mechanisms that regulate PKCδ expression via transcriptional activation. We first cloned the full-length mouse PKCδ promoter (2 Kb) from genomic DNA using the fusion PCR technique (FIG. 5A). The resulting PKCδ promoter 2 Kb fragment was cloned into the promoter-less pGL3-luciferase reporter vector. Binding of the transcription factors to the PKCδ promoter region would result in the expression of luciferase enzyme. […]

[3] = LPS and rottlerin treated samples, data not shown
[4] = LPS-stimulated primary mouse microglia

For C[n+]1ccc(-c2ccccc2)cc1 [MPP, 1-methyl-4-phenylpyridinium], the “TNFα release from BV-2 cells” value (BV-2 cells; 24 hr exposure to 300 μM, data not shown) was “failed to release TNFα”.

With CC(=O)c1c(O)c(C)c(O)c(Cc2c(O)c3c(c(C(=O)/C=C/c4ccccc4)c2O)OC(C)(C)C=C3)c1O [rottlerin, 3-[(8-Cinnamoyl-5,7-dihydroxy-2,2-dimethyl-2H-1-benzopyran-6-yl)methyl]-2′,4′,6′-trihydroxy-5-methylaceophenone] the “LPS-induced TNFα release” value (BV-2 microglia; LPS 1 μg/ml, rottlerin 1-3 μM, 16 hr) was “dose-dependently blocked”, the “LPS-induced IL-6 levels” value (BV-2 microglia; [3]) was “no effect” and the “LPS-induced IL-12 levels” value (BV-2 microglia; [3]) was “no effect”. For the same molecule, the “release of IL-6” value (primary mouse microglia; [4]) was “decrease”, the “release of IL-12” value (primary mouse microglia; [4]) was “decrease” and the “reduction of LPS-induced TNFα release” value (primary mouse microglia; primary microglia, 100 ng/ml LPS 24 hr, 3 μM rottlerin) was 75%. The “LPS-induced TNFα levels” value (primary mouse microglia; primary microglia, 100 ng/ml LPS 24 hr, rottlerin 1 μM and 3 μM, dose dependent) was “significantly suppressed”, the pro-inflammatory cytokine release (primary mouse microglia; primary microglia, pre-treated with rottlerin 1 μM, LPS 100 ng/ml 24 hrs) was “suppresses” and the PKCδ inhibition (PKCδ) was “effectively inhibits PKCδ”. For the same molecule, the “nigral dopaminergic neuronal death” value [1] was “protects” and the toxicity [2] was “does not cause any toxicity”.

In the case of Etanercept, the “TNFα-induced PKCδ promoter activity” value (PKCδ promoter; BV-2 cells, 30 ng/ml TNF with etanercept, 24 h, luciferase) is reported as “blocked”.

In the case of ProMMP3: inactive proMMP-3, the “levels of TNFα compared to control” value (BV-2 cells; BV-2 cells, 400 ng/ml, 24 hr) is reported as “did not induce any significant levels”.

In the case of TNFα, the PKCδ promoter activity (PKCδ promoter; BV-2 cells expressing 148 bp minimal PKCδ promoter construct, 30 ng/ml TNF) is reported as “significant increase”.
